This is an account of results in patent US10456404B2, “Targeting cGMP-related phosphodiesterases to reduce cyst formation in cystic kidney disease, and related materials and methods” (Indiana University Research and Technology Corporation, priority 2015, dated 2019).

In one assay the target is PDE5 (Homo sapiens, UniProt O76074). The settings on record: cited from earlier work.
For the next assay, the target named is human PDE9 (Homo sapiens, UniProt O76083). To be noted: cited from earlier work.
The subject of another assay is other PDEs. The settings on record: cited from earlier work.
A further assay concerns PDE6. The settings on record: cited from earlier work.
A further assay concerns cGMP. To be noted: in vivo; cited from earlier work.
Assay [1] concerns preclinical cognition models. To be noted: in vivo; cited from earlier work.
For assay [2], the system named is amyloid precursor protein overexpressing transgenic mice. To be noted: cited from earlier work.
For assay [3], the system named is Telomerase immortalized polycystic kidney cells. The assay can be described thus: cyst formation by immortalized polycystic kidney cells in 3D forskolin-supplemented Matrigel culture. The assay is classed as cell-based, human. The source says: Telomerase immortalized polycystic kidney cells, as described in Herbert et al. (PLoS One (2013), 8(1): e55191; which is hereby incorporated by reference in its entirety), were used to test the effect of sildenafil citrate on renal cyst growth. Cells from polycystic kidneys removed from patients for medically indicated reasons, removed from any research program, were obtained. The cells were obtained from the pathology laboratory. Cyst tissue was microdissected from the kidneys, and cells were isolated and grown in primary culture. The cells were then immortalized using retroviral techniques well known in the art. Following confirmation of an immortal phenotype, it was established that the polycystic cyst epithelial cells formed cyst structures when grown in 3D forskolin-supplemented Matrigel culture. Immortalized polycystic kidney cells were treated with microgram dosages of sildenafil citrate of 4 μg/ml, 2 μg/ml, and 1 μg/ml. […] Matched controls were sham-treated with vehicle but no drug. […] Dosages tested were consistent with the range of serum drug levels that occur when the drug is prescribed for erectile dysfunction.

Assay [4] shares this test system. Described as above. Type of assay: cell-based, human. The settings on record: for average cyst area vs vehicle sham-treated matched control: FIG. 1.

Read-outs that look alike come from different tables or passages of the source.

human PDE9, sequence (O76083 whole entry): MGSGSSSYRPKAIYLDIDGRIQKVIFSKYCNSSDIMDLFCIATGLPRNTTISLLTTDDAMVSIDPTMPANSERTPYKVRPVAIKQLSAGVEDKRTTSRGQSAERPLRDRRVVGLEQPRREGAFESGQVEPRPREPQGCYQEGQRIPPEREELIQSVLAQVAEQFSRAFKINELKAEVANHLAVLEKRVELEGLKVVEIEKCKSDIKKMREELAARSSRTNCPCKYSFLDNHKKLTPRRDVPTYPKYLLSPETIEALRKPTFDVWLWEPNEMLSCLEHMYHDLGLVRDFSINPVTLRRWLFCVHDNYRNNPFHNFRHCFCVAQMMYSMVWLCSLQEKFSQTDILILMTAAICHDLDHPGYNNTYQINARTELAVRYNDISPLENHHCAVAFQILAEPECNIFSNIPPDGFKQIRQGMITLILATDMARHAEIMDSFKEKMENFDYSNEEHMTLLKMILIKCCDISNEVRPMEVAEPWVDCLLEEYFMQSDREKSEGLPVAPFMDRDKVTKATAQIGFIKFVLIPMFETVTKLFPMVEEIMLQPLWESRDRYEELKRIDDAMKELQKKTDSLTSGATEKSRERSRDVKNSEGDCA

For `CCCc1nn(C)c2c(=O)[nH]c(-c3cc(S(=O)(=O)N4CCNCC4)ccc3OCC)nc12` [UK-103,320], the “PDE5 inhibition potency relative to the parent drug” value on PDE5 (parent drug sildenafil) is “approximately 50%”.

Turning to `C[C@H](Cc1nc2c(cnn2-c2ccccc2Cl)c(=O)[nH]1)C(F)(F)F` [BAY 73-6691, 1-(2-chlorophenyl)-6-[(2R)-3,3,3-trifluoro-2-methylpropyl]-1,5-dihydro-4H-pyrazolo[3,4-d]pyrimidine-4-one], the “inhibition of human PDE9 activity in vitro” value at human PDE9 is on record as “selectively inhibit”. The “activity against other PDEs” value in the assay on other PDEs is on record as “only moderate activity”.

In the case of `CCCc1nc(C)c2c(=O)[nH]c(-c3cc(S(=O)(=O)N4CCNCC4)ccc3OCC)nn12` [M1], the “PDE5 inhibition potency relative to the parent drug” value on PDE5 (parent drug vardenafil) was “reduced potency”.

As to `CCCOc1ccccc1-c1nc2[nH][nH]nc-2c(=O)n1` [Zaprinast, 5-(2-propoxyphenyl)-2,3-dihydrotriazolo[4,5-d]pyrimidin-7-one], the “PDE6 versus PDE5 inhibition potency” value in the assay on PDE6 was “inhibit PDE6 more potently than PDE5”.

With `C[C@@H]1CN(Cc2ncccn2)C[C@H]1c1nc2c(cnn2C2CCOCC2)c(=O)[nH]1` [PF-04447943, 6-[(3S,4S)-4-methyl-1-(pyrimidin-2-ylmethyl)pyrrolidin-3-yl]-1-(tetrahydro-2H-pyran-4-yl)-1,5-dihydro-4H-pyrazolo[3,4-d]pyrimidin-4-one], in the assay with cGMP, the “cGMP in brain and cerebrospinal fluid” value is listed as “elevates”. In assay [1], the “memory in preclinical cognition models” value is “improves” and the synaptic plasticity entry was “enhances”. Besides, the “decreases in dendritic spine density” value in assay [2] is given as “prevents”.

In the case of `CCCc1nn(C)c2c(=O)[nH]c(-c3cc(S(=O)(=O)N4CCN(C)CC4)ccc3OCC)nc12` [sildenafil, 5[2-ethoxy-5-(4-methyl-1-piperazinyl-sulphonyl)phenyl]-1-methyl-3-n-propyl-1,6-dihydro-7H-pyrazolo[4,3-d]pyrimidin-7-one], the “large cysts in photographs” value is on record as “No large cysts were observed” in assay [3] (1:250 dilution of drug in vehicle from a stock, FIG. 3B); “No large cysts were observed” in [3] (1:500 dilution of drug in vehicle from a stock, FIG. 4B); “No large cysts were observed” in assay [3] (1:1000 dilution of drug in vehicle from a stock, FIG. 5B).

`CCCc1nn(C)c2c(=O)[nH]c(-c3cc(S(=O)(=O)N4CCN(C)CC4)ccc3OCC)nc12.O=C(O)CC(O)(CC(=O)O)C(=O)O` [sildenafil citrate, 1-[[3-(6,7-dihydro-1-methyl-7-oxo-3-propyl-1H-pyrazolo[4,3-d]pyrimidin-5-yl)-4-ethoxyphenyl]sulfonyl]-4-methylpiperazine citrate]: the “Average cyst size compared to control” value in assay [3] (1 μg/ml, p<0.01) is recorded as “significantly decreased”; in assay [3] (2 μg/ml, p<0.01), “significantly decreased”; in assay [3] (4 μg/ml, p<1 E−6), “significantly decreased”. In addition, the “average cyst area vs vehicle sham-treated matched control” value is on record as “significantly reduced” in [3] (1000 ng/ml, p<0.01, FIG. 1); “significantly reduced” in assay [4] (250 ng/ml, p<1.05 E−8); “significantly reduced” in assay [4] (500 ng/ml, p<0.01). In addition, the “dose response of cyst area reduction” value in assay [4] (250, 500, 1000 ng/ml) is “No dose response”. The “large cyst formation (cyst structures of greater than 150μ^2), frequency distribution” value in assay [4] (250, 500, 1000 ng/ml, FIG. 2) is recorded as “completely inhibited”.

On to `CCCc1nc(C)c2c(=O)nc(-c3cc(S(=O)(=O)N4CCN(CC)CC4)ccc3OCC)[nH]n12` [Vardenafil, 2-[2-ethoxy-5-(4-ethylpiperazin-1-yl)sulfonylphenyl]-5-methyl-7-propyl-1H-imidazo[5,1-f][1,2,4]triazin-4-one], for which the PDE6 inhibition entry with PDE6 was “potent PDE6 inhibitor”.
